Measurements taken from PMC12073449, “Development of a Mechanism of Action-Reflective Cell-Based Reporter Gene Assay for Measuring Bioactivities of Therapeutic Glucagon-like Peptide-2 Analogues” (Molecules, 2025).
Ends that are not written are not given here.

Key:
[1] = parameters: method as in PMID 35933503; details: general statement; cited from earlier work
Source text: The diverse functions of GLP-2 highlight its significance in maintaining intestinal health and physiology. As a naturally occurring gut hormone, GLP-2 not only promotes nutrient absorption by decreasing intestinal motility and permeability, but also plays a pivotal role in stimulating intestinal epithelial cell growth and function. This multifaceted action of GLP-2 is crucial for the maintenance of the intestinal barrier, which is essential for preventing the translocation of harmful bacteria and toxins into the bloodstream.

human GLP-2R = molecular target: T1, human GLP-2R (Homo sapiens, UniProt O95838); assay: Cell-based reporter gene assay (RGA), HEK293-GLP-2R-Luc, CRE-luciferase; details: diluted to 2.665 µmol/L and further 7-fold for 10 concentration points; HEK293-GLP-2R-Luc cells
T1 construct: The full-length cDNA of human GLP-2R was synthesized, cloned, and inserted into the pLU.cmv.Zeo vector; expressed in transfected cells
T1 sequence (O95838 1-553): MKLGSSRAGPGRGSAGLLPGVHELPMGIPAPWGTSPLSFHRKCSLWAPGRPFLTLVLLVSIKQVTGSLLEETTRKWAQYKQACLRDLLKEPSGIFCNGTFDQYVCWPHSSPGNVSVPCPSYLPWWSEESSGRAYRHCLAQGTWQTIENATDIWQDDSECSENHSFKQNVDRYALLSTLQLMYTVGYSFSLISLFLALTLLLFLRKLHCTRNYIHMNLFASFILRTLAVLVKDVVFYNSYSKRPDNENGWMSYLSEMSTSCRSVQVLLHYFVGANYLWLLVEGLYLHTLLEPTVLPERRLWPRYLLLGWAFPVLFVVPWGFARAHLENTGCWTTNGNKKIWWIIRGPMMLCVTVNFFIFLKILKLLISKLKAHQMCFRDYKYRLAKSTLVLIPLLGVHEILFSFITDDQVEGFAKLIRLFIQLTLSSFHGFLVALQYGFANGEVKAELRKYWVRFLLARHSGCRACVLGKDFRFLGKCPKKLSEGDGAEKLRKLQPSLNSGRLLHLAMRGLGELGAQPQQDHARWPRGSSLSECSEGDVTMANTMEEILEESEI
Procedure: To generate a HEK293 cell line stably expressing CRE-driven luciferase and GLP2R, the CRE-miniP.Luc virus-containing cell supernatants were diluted in DMEM in the presence of 8 µg/mL polybrene before being added to HEK293 cells. To obtain a stable cell pool, the medium was replaced 48 h after incubation, with fresh culture medium containing 3 µg/mL puromycin. After about 3 weeks selection, the cell pool was then further infected with pLU.cmv-GLP2R.Zeo virus and selected with 200 µg/mL Zeocin and 3 µg/mL puromycin. […] The expression of GLP-2R was examined using flow cytometry. After that, the positive clones were routinely maintained in selective medium.
Cell-based RGA has been described previously. Briefly, 50 microliters of HEK293-GLP-2R-Luc cells were seeded into a 96-well white plate at a density of 4 × 10^4 cells/well. The cells were then incubated at 37 °C with 5% CO2 overnight (16 to 24 h). […] After 5 h of incubation, 100 µL of britelite plus reporter Gene Assay reagent were added to each well and mixed thoroughly under subdued light conditions for 5 min. The RLU signal was then determined with a SpectraMax M5e multimode plate reader (Molecular Devices, San Jose, CA, USA).
The RGA was validated as described previously. […] Samples of each potency level were tested by two analysts 8 times in total. […] The response of HEK293-GLP2R-Luc cells to these samples were determined as illustrated in 4.6.
The lower/upper asymptote was determined by the ratio of the top asymptote to the bottom asymptote when RGA best fit the 4PL model. The correlation coefficient (R^2), deviations from parallelism, and the regression in the 4PL model were estimated using SoftMax® Pro 7.1 software (Molecular Devices, San Jose, CA, USA). Specifically, a linear regression with an R^2 value no less than 0.98 was considered to have a very good fit. Additionally, a p-value below 0.01 was regarded as statistically significant. […] All the dose-response curves were plotted using GraphPad Prism® software 8.0.2 (GraphPad, Boston, MA, USA).

Substance: HGEGTFSSELATILDALAARDFINWLIATKITDKKKKKK-NH2 [glepaglutide]
- bioactivity [1]: enhanced bioactivities
- half-life [1]: extended half-lives
- dose-response curve in RGA (human GLP-2R): induced sigmoid curves similar to those induced by teduglutide
